Reference: patent US12343335B2, “Pharmaceutical composition for treating multiple sclerosis on basis of AMPK inhibitory function and zinc homeostasis control function” (ZINCURE CORP., priority 2019, dated 2025)

Tested on: spinal cord of EAE mice
Experiment: Cresyl violet staining of spinal cord of EAE mice (mononuclear cell infiltration)
Type: in vivo, C57BL/6 female mice
Conditions: spinal cord white matter, day 21 after EAE induction, vs vehicle
Method: The present inventors induced experimental autoimmune encephalomyelitis (EAE), an animal model of multiple sclerosis, by subcutaneously injecting Myelin oligodendrocyte glycoprotein 35-55 (MOG35-55) peptide antigen into C57BL/6 female mice (FIG. 1A). For this, MOG35-55 (Ana spec, USA) and Complete freund's adjuvant (CFA) were first prepared, and MOG35-55 (2 mg/ml) was dissolved in Phosphate buffered saline (lx PBS, Sigma), and then the 25 ml of CFA was prepared by dispending 25 ml of incomplete freund's adjuvant (IFA. Sigma) in a 50 ml conical tube. Then, in a fume hood, Mycobacterium tuberculosis H37Ra (100 mg; Difco, USA) was added to the IFA in order to prepare CFA and store it in the refrigerator after vortexing before use. Thereafter, MOG35-55 and CFA containing Mycobacterium tuberculosis H37Ra was mixed in the same amount and injected into both flanks of the mice. And then Pertussis toxin (4 μg/ml, List Biological Laboratories, USA) was injected intraperitoneally on the day of immunization and on the second day after immunization. After the immunization, the mice's body weight and clinical symptoms were measured every day, and the degree of EAE progression was evaluated based on specific clinical symptoms. More details on this are provided below. […]

O=C1N=C(Nc2cccc(O)c2)S/C1=C\c1c[nH]c2ccccc12 [1H10, (Z)-5-((1H-indol-3-yl)methylene)-2-((3-hydroxyphenyl)amino)thiazol-4(5H)-one]
mononuclear cell infiltration: significantly inhibited
